This is an account of results in EPA's ToxValDB 9.5 (doi:10.2903/j.efsa.2015.4024).

The series relates to Rattus norvegicus.
Where [1] appears, read: subchronic, duration: 90 days, oral, gavage, M/F, Crj:CD, clinical signs.
Where [2] appears, read: subchronic, duration: 90 days, oral, diet.

As for `Cc1cc(SC(=O)CC(C)C)c(C)o1` [2,5-Dimethyl-3-thioisovalerylfuran], the NOEL (subchronic, duration: 90 days) is 0.73 mg/kg-day.
Under setting [1], `CC1CC(S)C(C)O1` (centres undefined) [2,5-Dimethyltetrahydrofuran-3-thiol] returned an NOAEL of 5 mg/kg-day.
On to `CSC(=O)c1ccco1` [2-Furancarbothioic acid, S-methyl ester], for which the NOAEL (subchronic, duration: 90 days, oral) was found to be 6.63 mg/kg-day.
`CC(=O)SC1=C(C)OCC1` [2-Methyl-3-thioacetoxy-4,5-dihydrofuran] had an NOEL (chronic, duration: 1 years, oral, diet) of 8.3 mg/kg-day.
With `Cc1occc1SSSSc1ccoc1C` [Bis(2-methyl-3-furyl) tetrasulfide], the NOEL (subchronic, duration: 90 days) was 0.56 mg/kg-day.
As to `Cc1occc1SSc1ccoc1C` [Bis(2-methyl-3-furyl)disulfide], the NOEL under setting [2] was found to be 0.45 mg/kg-day.
Consider `CCOC(=O)CCSCc1ccco1` [Ethyl 3-(furfurylthio)propionate], for which the NOEL (subchronic, duration: 90 days) amounted to 17 mg/kg-day.
On to `Cc1cc(SSc2cc(C)oc2C)c(C)o1` [Furan, 3,3'-dithiobis[2,5-dimethyl-], for which, under setting [2], the NOEL turned out to be 0.45 mg/kg-day.
Under setting [1], `CC1OCCC1S` (centres undefined) [Tetrahydro-2-methyl-3-furanthiol] gave an NOAEL of 5 mg/kg-day.

Usually NOAEL stands for the highest tested level that showed no adverse finding.
